This passage reports T/C results from PubChem BioAssay AID200 (DTP/NCI, 2004).

Several values for one entry are separate records, joined by “and”; a condition that tells them apart may be missing. Equal entries are not always repeated. Toxic doses and inconclusive results are not listed.

This experiment has as its system B6C3F1 mice, B16 melanoma ip, median survival T/C. Put plainly: NCI In Vivo Anticancer Drug Screen. Data for tumor model B16 Melanoma (intraperitoneal) in B6C3F1 mice. As to conditions: endpoint: median survival time, higher = longer survival. The method, boiled down:
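Transplantable tumor in mice; treated vs vehicle control groups; survival or tumor size measured; value = T/C ratio.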

Setting [1] is: dose: 25.0 mg/kg/injection, schedule: Q01DX009 (ip), vehicle: saline.
Setting [2] is: dose: 50.0 mg/kg/injection, schedule: Q01DX009 (ip), vehicle: saline.
The mark [3] stands for this setting: dose: 100.0 mg/kg/injection, schedule: Q01DX009 (ip), vehicle: saline.
The mark [4] stands for this setting: dose: 12.5 mg/kg/injection, schedule: Q01DX009 (ip), vehicle: saline with Tween-80.
The mark [5] stands for this setting: dose: 25.0 mg/kg/injection, schedule: Q01DX009 (ip), vehicle: saline with Tween-80.
Where [6] appears, read: dose: 50.0 mg/kg/injection, schedule: Q01DX009 (ip), vehicle: saline with Tween-80.
Where [7] appears, read: dose: 12.5 mg/kg/injection, schedule: Q01DX009 (ip), vehicle: saline.

As to `CC(C)NC(=O)N(CCCCBr)N=O`, the T/C runs as follows: (dose: 6.25 mg/kg/injection, schedule: Q01DX009 (ip), vehicle: Klucel (hydroxypropylcellulose) (HPC)) 98 % of control; (dose: 12.0 mg/kg/injection, schedule: Q01DX009 (ip), vehicle: Klucel (hydroxypropylcellulose) (HPC)) 118 % of control; (dose: 12.5 mg/kg/injection, schedule: Q01DX009 (ip), vehicle: Klucel (hydroxypropylcellulose) (HPC)) 98 % of control and 102 % of control; (dose: 25.0 mg/kg/injection, schedule: Q01DX009 (ip), vehicle: Klucel (hydroxypropylcellulose) (HPC)) 99 % of control and 102 % of control; (dose: 50.0 mg/kg/injection, schedule: Q01DX009 (ip), vehicle: Klucel (hydroxypropylcellulose) (HPC)) 116 % of control and 106 % of control; (dose: 100.0 mg/kg/injection, schedule: Q01DX009 (ip), vehicle: Klucel (hydroxypropylcellulose) (HPC)) 88 % of control and 96 % of control. Moreover, the T/C (dose: 200.0 mg/kg/injection, schedule: Q01DX009 (ip), vehicle: Klucel (hydroxypropylcellulose) (HPC)) was 102 % of control.
On to `CC(=O)Nc1ccc(C(O)C2=CC(=O)c3ccccc3C2=O)cc1` (configuration not stated), for which the T/C is 102 % of control under setting [1], 88 % of control under setting [2] and 94 % of control under setting [3].
For `O=CC(O)C(O)C(O)C(O)CO` (configuration not stated), the T/C (dose: 75.0 mg/kg/injection, schedule: Q01DX009 (ip), vehicle: saline) was 95 % of control; the T/C (dose: 150.0 mg/kg/injection, schedule: Q01DX009 (ip), vehicle: saline) was 102 % of control; the T/C (dose: 300.0 mg/kg/injection, schedule: Q01DX009 (ip), vehicle: saline) is 103 % of control; the T/C (dose: 600.0 mg/kg/injection, schedule: Q01DX009 (ip), vehicle: saline) is 87 % of control; the T/C (dose: 1200.0 mg/kg/injection, schedule: Q01DX009 (ip), vehicle: saline) is 96 % of control.
For the compound `O=C(O)[C@H](Cc1ccccc1)N1C(=O)c2ccccc2C1=O`, the T/C reads like this: (dose: 50.0 mg/kg/injection, schedule: Q01DX009 (ip), vehicle: DMSO) 96 % of control; (dose: 100.0 mg/kg/injection, schedule: Q01DX009 (ip), vehicle: DMSO) 99 % of control; (dose: 200.0 mg/kg/injection, schedule: Q01DX009 (ip), vehicle: DMSO) 99 % of control; (dose: 800.0 mg/kg/injection, schedule: Q01DX009 (ip), vehicle: DMSO) 88 % of control.
Take `CC(=O)OC1C(C)OC(OC(=O)C2CCC3C(C2)OC2(CC(OC(=O)/C=C/c4ccccc4)C(C)CO2)C32CO2)C(OC2OC(C)C(O)C(OC(C)=O)C2O)C1O` (configuration not stated): the T/C is, setting by setting: (dose: 0.75 mg/kg/injection, schedule: Q01DX009 (ip), vehicle: saline + alcohol) 100 % of control; (dose: 1.5 mg/kg/injection, schedule: Q01DX009 (ip), vehicle: saline + alcohol) 99 % of control; (dose: 3.0 mg/kg/injection, schedule: Q01DX009 (ip), vehicle: saline + alcohol) 99 % of control; (dose: 4.0 mg/kg/injection, schedule: Q01DX009 (ip), vehicle: saline + Tween-80 + alcohol) 122 % of control; (dose: 16.0 mg/kg/injection, schedule: Q01DX009 (ip), vehicle: saline + Tween-80 + alcohol) 161 % of control; (dose: 32.0 mg/kg/injection, schedule: Q01DX009 (ip), vehicle: saline + Tween-80 + alcohol) 174 % of control. The T/C (dose: 64.0 mg/kg/injection, schedule: Q01DX009 (ip), vehicle: saline + Tween-80 + alcohol) was 201 % of control.
For the compound `Nc1nc(-c2ccc(S(=O)(=O)O)cc2)cc(=O)[nH]1`, the T/C was 100 % of control (dose: 3.31 mg/kg/injection, schedule: Q01DX009 (ip), vehicle: saline); 105 % of control (dose: 6.62 mg/kg/injection, schedule: Q01DX009 (ip), vehicle: saline); 105 % of control (dose: 13.25 mg/kg/injection, schedule: Q01DX009 (ip), vehicle: saline); 96 % of control and 104 % of control (dose: 26.5 mg/kg/injection, schedule: Q01DX009 (ip), vehicle: saline); 104 % of control (dose: 53.0 mg/kg/injection, schedule: Q01DX009 (ip), vehicle: saline); 110 % of control (dose: 106.0 mg/kg/injection, schedule: Q01DX009 (ip), vehicle: saline).
For the compound `CN(C)CCNc1ccc(NCCN(C)C)c2c1C(=O)c1ccccc1C2=O`, the T/C (dose: 20.0 mg/kg/injection, schedule: Q01DX009 (ip), vehicle: distilled water + Tween-80) was 117 % of control.
Take `CC1(c2ccc(Cl)cc2)OC(=O)C(=Cc2ccc([N+](=O)[O-])s2)C(=O)O1` (configuration not stated): the T/C (dose: 6.25 mg/kg/injection, schedule: Q01DX009 (ip), vehicle: saline with Tween-80) was 89 % of control; the T/C under setting [4] was 86 % of control; the T/C under setting [5] was 90 % of control; the T/C under setting [6] was 89 % of control.
Turning to `CCC1=C[C@H]2CN(CCc3c([nH]c4ccccc34)[C@@](C(=O)OC)(c3cc4c(cc3OC)N(C)[C@H]3[C@@](O)(C(=O)NC)[C@H](OC(C)=O)[C@]5(CC)C=CCN6CC[C@]43[C@@H]65)C2)C1`, the T/C is, setting by setting: (dose: 0.03 mg/kg/injection, schedule: Q01DX009 (ip), vehicle: saline) 117 % of control; (dose: 0.06 mg/kg/injection, schedule: Q01DX009 (ip), vehicle: saline) 118 % of control; (dose: 0.12 mg/kg/injection, schedule: Q01DX009 (ip), vehicle: saline) 170 % of control; (dose: 0.25 mg/kg/injection, schedule: Q01DX009 (ip), vehicle: saline) 182 % of control; (dose: 0.5 mg/kg/injection, schedule: Q01DX009 (ip), vehicle: saline) 238 % of control.
As for `COc1cc(C)c2c(c1C=O)Oc1c(c(C)c(O)c3c1C(O)OC3=O)OC2=O` (configuration not stated), the T/C (dose: 3.12 mg/kg/injection, schedule: Q01DX009 (ip), vehicle: saline) was 94 % of control; the T/C (dose: 6.25 mg/kg/injection, schedule: Q01DX009 (ip), vehicle: saline) was 100 % of control; the T/C under setting [7] is 105 % of control; the T/C under setting [1] was 98 % of control; the T/C under setting [2] is 98 % of control.
As for `CC1CCC(NC(=O)N(CCCl)N=O)CC1` (configuration not stated), the T/C is, setting by setting: (dose: 2.5 mg/kg/injection, schedule: Q01DX005 (ip), vehicle: other) 114 % of control; (dose: 2.5 mg/kg/injection, schedule: Q01DX005 (iv), vehicle: other) 107 % of control; (dose: 4.0 mg/kg/injection, schedule: Q04DX002 (ip), vehicle: other) 98 % of control; (dose: 5.0 mg/kg/injection, schedule: Q01DX005 (ip), vehicle: other) 151 % of control; (dose: 8.0 mg/kg/injection, schedule: Q04DX002 (ip), vehicle: other) 113 % of control; (dose: 10.0 mg/kg/injection, schedule: Q01DX001 (iv), vehicle: other) 111 % of control. The T/C runs as follows: (dose: 10.0 mg/kg/injection, schedule: Q01DX005 (ip), vehicle: other) 294 % of control; (dose: 16.0 mg/kg/injection, schedule: Q04DX002 (ip), vehicle: other) 165 % of control; (dose: 20.0 mg/kg/injection, schedule: Q01DX001 (ip), vehicle: other) 162 % of control; (dose: 20.0 mg/kg/injection, schedule: Q01DX001 (iv), vehicle: other) 168 % of control; (dose: 32.0 mg/kg/injection, schedule: Q04DX002 (ip), vehicle: other) 76 % of control; (dose: 40.0 mg/kg/injection, schedule: Q01DX001 (ip), vehicle: other) 223 % of control. In addition, the T/C (dose: 40.0 mg/kg/injection, schedule: Q01DX001 (iv), vehicle: other) is 222 % of control.
Take `Cn1cnc([N+](=O)[O-])c1SCC(=O)O`: the T/C reads like this: under setting [4], 104 % of control; under setting [7], 109 % of control; under setting [5], 89 % of control; under setting [1], 114 % of control; under setting [6], 103 % of control; under setting [2], 122 % of control. Also, the T/C was 98 % of control (dose: 100.0 mg/kg/injection, schedule: Q01DX009 (ip), vehicle: saline with Tween-80); 108 % of control under setting [3]; 97 % of control (dose: 200.0 mg/kg/injection, schedule: Q01DX009 (ip), vehicle: saline with Tween-80); 104 % of control (dose: 200.0 mg/kg/injection, schedule: Q01DX009 (ip), vehicle: saline); 97 % of control (dose: 400.0 mg/kg/injection, schedule: Q01DX009 (ip), vehicle: saline with Tween-80); 99 % of control (dose: 400.0 mg/kg/injection, schedule: Q01DX009 (ip), vehicle: saline).
